Measurements from ChEMBL document CHEMBL3124761, “Synthesis and biological evaluation of N,N'-squaramides with high in vivo efficacy and low toxicity: toward a low-cost drug against Chagas disease” (J Med Chem, 2014).
The source made the active and inactive calls. The rule behind the calls is not given here.

What was measured:
Trypanosoma cruzi [1] = test: Antitrypanosomal activity against trypomastigote stage of Trypanosoma cruzi IRHOD/CO/2008/SN3 assessed as reduction of trypomastigote number per mililiter of culture medium at IC25 preincubated for 12 hrs followed by compound washout measured every 48 hrs for 10 days by Neubauer hemocytometric chamber analysis relative to control; format: functional
Trypanosoma cruzi [2] = test: (§1) Antitrypanosomal activity against amastigote stage of Trypanosoma cruzi IRHOD/CO/2008/SN3 infected in African green monkey Vero cells assessed as decrease in infection rate at IC25 preincubated for 12 hrs followed by compound washout measured every 48 hrs for 10 days by Neubauer hemocytometric chamber analysis relative to control; format: functional
[3] = Selectivity index, ratio of IC50 for African green monkey Vero cells to IC50 for epimastigote stage of Trypanosoma cruzi IRHOD/CO/2008/SN3; format: toxicity, cell-based; conditions: read-out: Ratio IC50
Trypanosoma cruzi [4] = test: Antitrypanosomal activity against epimastigote stage of Trypanosoma cruzi IRHOD/CO/2008/SN3 assessed as change in excreted pyruvate level at IC25 after 96 hrs by 1H NMR analysis relative to control; format: functional
Mus musculus [5] = test: Toxicity in BALB/c albino mouse infected with blood trypomastigote stage of Trypanosoma cruzi assessed as change in LDH level in serum at 25 mg/kg, ip administered on day 7 to 12 post-infection measured after day 120 relative to control; format: organism-based; design: dose 25 mg/kg, route intraperitoneal; conditions: in vivo
Vero = test: Cytotoxicity against African green monkey Vero cells assessed as cell viability after 72 hrs by propidium iodide/fluorescein diacetate staining-based flow cytometric analysis; conditions: Chlorocebus sabaeus
Trypanosoma cruzi [6] = test: Trypanocidal activity against metacyclic trypomastigote stage of Trypanosoma cruzi infected in BALB/c albino mouse acute chagas disease model assessed as inhibition of parasitemia at 25 mg/kg, ip administered on day 7 to 12 post-infection measured every 2 days until day 40 […] relative to control; format: functional; conditions: route intraperitoneal
Trypanosoma cruzi [7] = test: Trypanocidal activity against metacyclic trypomastigote stage of Trypanosoma cruzi infected in BALB/c albino mouse acute chagas disease model assessed as reduction of parasite burden at 25 mg/kg, ip administered on day 7 to 12 post-infection measured on day 14 by ELISA; format: functional, organism-based; design: dose 25 mg/kg
Mus musculus [8] = test: Toxicity in BALB/c albino mouse infected with blood trypomastigote stage of Trypanosoma cruzi assessed as change in alkaline phosphatase level in serum at 25 mg/kg, ip administered on day 7 to 12 post-infection measured after day 120 relative to control; format: organism-based; design: dose 25 mg/kg, route intraperitoneal; conditions: in vivo
Trypanosoma cruzi [9] = test: as §1, with “reduction of amastigote number per cell” for “decrease in infection rate”; format: functional
Mus musculus [10] = test: Toxicity in BALB/c albino mouse infected with blood trypomastigote stage of Trypanosoma cruzi assessed as decrease in creatinephophokinase-MB level in serum at 25 mg/kg, ip administered on day 7 to 12 post-infection measured after day 120 relative to control; format: organism-based; design: dose 25 mg/kg, route intraperitoneal; scale not given: the % may be the effect or the level left; conditions: in vivo
Trypanosoma cruzi [11] = test: Antitrypanosomal activity against epimastigote stage of Trypanosoma cruzi IRHOD/CO/2008/SN3 assessed as change in excreted alanine level at IC25 after 96 hrs by 1H NMR analysis relative to control; format: functional
Trypanosoma cruzi [12] = test: Antitrypanosomal activity against epimastigote stage of Trypanosoma cruzi IRHOD/CO/2008/SN3 assessed as change in excreted succinate level at IC25 after 96 hrs by 1H NMR analysis relative to control; format: functional
Trypanosoma cruzi [13] = test: Antitrypanosomal activity against epimastigote stage of Trypanosoma cruzi IRHOD/CO/2008/SN3 assessed as parasite growth inhibition after 72 hrs by Neubauer hemocytometric chamber analysis; format: functional, organism-based; conditions: IRHOD/CO/2008/SN3, 72 h
Mus musculus [14] = test: Toxicity in BALB/c albino mouse infected with blood trypomastigote stage of Trypanosoma cruzi assessed as decrease in ALT/GPT level in serum at 25 mg/kg, ip administered on day 7 to 12 post-infection measured after day 120 relative to control; format: organism-based; design: dose 25 mg/kg, route intraperitoneal; scale not given: the % may be the effect or the level left; conditions: in vivo
Trypanosoma cruzi [15] = test: Antitrypanosomal activity against epimastigote stage of Trypanosoma cruzi IRHOD/CO/2008/SN3 assessed as change in excreted lactate level at IC25 after 96 hrs by 1H NMR analysis relative to control; format: functional
Mus musculus [16] = test: Toxicity in BALB/c albino mouse assessed as mortality at 25 mg/kg, ip administered for 5 days; format: organism-based; design: dose 25 mg/kg, route intraperitoneal; conditions: in vivo, 120 h
Trypanosoma cruzi [17] = test: Antitrypanosomal activity against epimastigote stage of Trypanosoma cruzi IRHOD/CO/2008/SN3 assessed as change in excreted acetate level at IC25 after 96 hrs by 1H NMR analysis relative to control; format: functional
[18] = Selectivity index, ratio of IC50 for African green monkey Vero cells to IC50 for amastigote stage of Trypanosoma cruzi IRHOD/CO/2008/SN3 infected in African green monkey Vero cells; format: toxicity, cell-based; conditions: read-out: Ratio IC50
Mus musculus [19] = test: Toxicity in BALB/c albino mouse infected with blood trypomastigote stage of Trypanosoma cruzi assessed as increase in AST/GOT level in serum at 25 mg/kg, ip administered on day 7 to 12 post-infection measured after day 120 relative to control; format: organism-based; design: dose 25 mg/kg, route intraperitoneal; conditions: in vivo
Mus musculus [20] = test: Toxicity in BALB/c albino mouse infected with blood trypomastigote stage of Trypanosoma cruzi assessed as change in uric acid level in serum at 25 mg/kg, ip administered on day 7 to 12 post-infection measured after day 120 relative to control; format: organism-based; design: dose 25 mg/kg, route intraperitoneal; conditions: in vivo
Mus musculus [21] = test: Toxicity in BALB/c albino mouse infected with blood trypomastigote stage of Trypanosoma cruzi assessed as change in urea level in serum at 25 mg/kg, ip administered on day 7 to 12 post-infection measured after day 120 relative to control; format: organism-based; design: dose 25 mg/kg, route intraperitoneal; conditions: in vivo
Mus musculus [22] = test: Toxicity in BALB/c albino mouse infected with blood trypomastigote stage of Trypanosoma cruzi assessed as increase in total bilirubin level in serum at 25 mg/kg, ip administered on day 7 to 12 post-infection measured after day 120 relative to control; format: organism-based; design: dose 25 mg/kg, route intraperitoneal; conditions: in vivo
Trypanosoma cruzi [23] = test: Antitrypanosomal activity against amastigote stage of Trypanosoma cruzi IRHOD/CO/2008/SN3 infected in African green monkey Vero cells assessed as parasite growth inhibition after 72 hrs by Giemsa staining-based microscopic analysis; format: functional, organism-based; conditions: IRHOD/CO/2008/SN3, Vero

In the case of `CCCCNc1c(NCCCN(CCCC)CCCC)c(=O)c1=O`, the “inhibition (INH)” value (Trypanosoma cruzi [1]) is reported as 38%, the “inhibition (INH)” value (Trypanosoma cruzi [2]) is reported as 61% and the selectivity ratio [3] is reported as 13.3. The Activity (Trypanosoma cruzi [4]) was -12%, the Activity (Mus musculus [5]) was < 10% and the IC50 (Vero) was 148 µM. For the same compound, the inhibition in vivo at 25 mg/kg (Trypanosoma cruzi [6]) was 21%, the Activity (Trypanosoma cruzi [7]) was “Active” and the Activity (Mus musculus [8]) was < 10%. For the same compound, the “inhibition (INH)” value (Trypanosoma cruzi [9]) was 45%, the Activity (Mus musculus [10]) was 30% and the Activity (Trypanosoma cruzi [11]) was -7.9%. The Activity (Trypanosoma cruzi [12]) was -21.6%, the IC50 (Trypanosoma cruzi [13]) was 21.1 µM and the Activity (Mus musculus [14]) was 10%. For the same compound, the Activity (Trypanosoma cruzi [15]) was -22.3%, the Activity (Mus musculus [16]) was “Non-toxic” and the Activity (Trypanosoma cruzi [17]) was 8.5%. The selectivity ratio [18] was 24.6, the Activity (Mus musculus [19]) was 40% and the Activity (Mus musculus [20]) was < 10%. For the same compound, the Activity (Mus musculus [21]) was < 10%, the Activity (Mus musculus [22]) was 30% and the IC50 (Trypanosoma cruzi [23]) was 6 µM.
